In PubChem BioAssay (NCI):
Where “and” joins values, the source holds several entries; their conditions need not be identical. Identical values can stand only once.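 1) Cells in 96-well plates. 2) Compound, 48 h, 5 concentrations. 3) Linear interpolation between surrounding doses. 4) Unreached endpoint = highest concentration. Abbreviation: GI50, concentration required for 50% inhibition of growth. TGI denotes the concentration required for complete inhibition of growth.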

Tests used:
Test in all cases: NCI tumour cell line growth inhibition, 48 h
786-0 renal = test system: 786-0 renal
CAKI-1 renal = test system: CAKI-1 renal
DU-145 prostate = test system: DU-145 prostate
HS 578T breast = test system: HS 578T breast
M14 melanoma = test system: M14 melanoma
MCF7 breast = test system: MCF7 breast
MOLT-4 leukemia = test system: MOLT-4 leukemia
NCI-H522 lung = test system: NCI-H522 lung
SF-539 CNS = test system: SF-539 CNS
SR leukemia = test system: SR leukemia

Structure (SMILES) | GI50 (786-0 renal) [µM] | TGI (786-0 renal) | GI50 (CAKI-1 renal) [µM] | TGI (CAKI-1 renal) | GI50 (DU-145 prostate) [µM] | TGI (DU-145 prostate) | GI50 (HS 578T breast) [µM] | TGI (HS 578T breast) [µM] | GI50 (M14 melanoma) [µM] | TGI (M14 melanoma) [µM] | GI50 (MCF7 breast) [µM] | TGI (MCF7 breast) [µM] | GI50 (MOLT-4 leukemia) [µM] | TGI (MOLT-4 leukemia) | GI50 (NCI-H522 lung) [µM] | TGI (NCI-H522 lung) | GI50 (SF-539 CNS) [µM] | TGI (SF-539 CNS) [µM] | GI50 (SR leukemia) | TGI (SR leukemia)
CC(C)OC(=O)OCOP(=O)(OCOC(=O)OC(C)C)C1CCCN(O)C1=O (stereo not drawn) | 0.407 | > 100 µM | 3.55 | > 100 µM | 3.83 | > 100 µM | 0.586 | 6.56 | 2.67 | > 100 | 1.52 | > 100 | 1.34 | > 100 µM | 0.768 | > 100 µM | 5.79 | > 100 | 1.25 µM | > 100 µM
CCCN1CCCC(c2ccc(Nc3nc(Nc4cc(F)ccc4C(N)=O)c4cc[nH]c4n3)c(OC)c2)C1 (stereo not drawn) | 2.84 | 6.29 µM | 3.17 | 8.63 µM | 0.802 | 4.74 µM | 3.41 | 12.3 | 1.02 | 4.8 | 0.0137 | 3.58 | 3.8 | 11.1 µM | 2.85 | 6.01 µM | 2.14 | 6.05 | 0.0112 µM | 7.99 µM
Cc1ccccc1C1N=C2Oc3ccccc3C=C2C(=O)N1 (stereo not drawn) | 14.1 | > 100 µM | 5.46 | > 100 µM | 2.09 | > 100 µM | 2.82 | > 100 | 0.826 | 7.66 | 0.793 | > 100 | 19 | > 100 µM | 0.556 | 3.32 µM | 1.75 | 6.88 | 14.5 µM | > 88.3 µM
CN1CC[C@H](N(C)C(=O)N2CC(c3cc(F)ccc3F)=C[C@@]2(CO)c2ccccc2)[C@H](F)C1 | 0.0072 | > 100 µM | 0.0459 | > 100 µM | 0.033 | 35.4 µM | 0.0293 | 7.88 | 0.00202 | 0.00507 | 0.00333 | 77.6 | 0.0377 | > 100 µM | 0.00871 |  | 0.00498 |  | 0.00871 µM | 40.5 µM
O=C(/C=C/c1ccccc1)c1ccccn1 |  | 24.7 µM and 40.9 µM |  | 33.2 µM and 64.4 µM |  | 24.8 µM and 40.5 µM |  | 77.3 |  | 29.9 |  | 37.1 |  | 61.4 µM and 72.6 µM |  | 48.2 µM and 33.2 µM |  | 42.4 | 1.96 µM and 7.94 µM | 7.7 µM and 54.6 µM
CCN(CC)CCCC(C)Nc1ccnc2cc(OC)ccc12 (stereo not drawn) | 17.1 | 35.9 µM | 19.6 | 44.4 µM | 20.6 | 44.4 µM | 26.3 | 66.3 | 16.7 | 30.4 | > 100 | > 100 | 25.9 | 74.5 µM | 17.9 | 37.4 µM | 19 | 34.4 | 24.1 µM | > 100 µM
COc1cccc(-c2cc(-c3ccc(Nc4nc(Nc5ccc(Cl)cc5)nc(Nc5ccc(Cl)cc5)n4)cc3)nc(N)c2C#N)c1 | 1.77 | 3.43 µM | 1.23 | 5.09 µM | 4.58 | 26.1 µM | 2.66 | 11.2 | 2.5 | 7.12 |  | 5.84 | 1.63 | 4.93 µM | 1.75 | 4.62 µM | 1.69 | 4.1 | 0.966 µM | 4.22 µM
C=C(CN1CCc2ccccc2C1)c1ccc(C(=O)Nc2cccc(N)c2)cc1 | 17.2 | 46.6 µM | 16.3 | 45.1 µM | 19 | 44 µM | 24.7 | 58.1 | 15.4 | 29.1 | 17.5 | 42.8 | 6 | 28.6 µM | 18 | 40.2 µM | 17.4 | 35.3 | 11.7 µM | 54.8 µM
N#CCC1CCN(c2nc(Nc3ccc(N4CCC(O)CC4)cc3)c3c(=O)[nH]ncc3n2)CC1 | 0.82 | > 100 µM | 0.312 | > 100 µM | 0.547 | > 100 µM | 0.22 | 1.23 | 0.402 | > 100 | 0.297 | > 100 | 0.652 | > 100 µM | > 100 | > 100 µM | 0.869 | 2.82 | 0.288 µM | > 100 µM
COc1cc(C(=O)N[C@@H]2CCCN(C)C2)ccc1Nc1ncc2c(n1)N(C1CCCC1)CC(C)(C)C(=O)N2C | 0.308 | 6.43 µM | 0.984 | 19.7 µM | 0.0488 | 19.6 µM | 0.188 | 19.9 | 0.0494 | 0.769 | 0.0278 | 11.6 | 0.0417 | 3.89 µM | 0.0209 | 0.0575 µM | 0.203 | 1.69 | 0.0369 µM | 2.49 µM
CCOc1ccc(-c2nc3ccc(-c4nc5ccc(N6CCN(C)CC6)cc5[nH]4)cc3[nH]2)cc1OCC | 2.08 | 5.93 µM | 2.71 | 17.6 µM | 2.37 | 8.1 µM | 1.74 | 5.46 | 0.831 | 3.84 | 0.498 | 3.05 | 2.75 | 9.76 µM | 1.16 | 3.8 µM | 1.2 | 2.71 | 0.678 µM | 7.78 µM
C=C(C)[C@@H]1CC[C@]2(C(=O)OC)CC[C@]3(C)[C@H](CC[C@@H]4[C@@]5(C)CC/C(=N\OCCC(=NCCC#N)NOCCC#N)C(C)(C)[C@@H]5CC[C@]43C)[C@@H]12 | 6.42 | 16.4 µM | 10.2 | > 50 µM | 13.4 | > 50 µM | 30.2 | > 50 | 11.9 | > 50 | 3.68 | > 50 | 2.52 | 13 µM | 8.34 | > 50 µM | 11 | > 50 | 2.87 µM | 16.5 µM
CC(C)c1c(C(=O)Nc2ccccc2)c(-c2ccccc2)c(-c2ccc(F)cc2)n1CC[C@@H](O)C[C@@H](O)CC(=O)O | 22.3 | > 81.2 µM | 11.9 | 32.8 µM | 52.5 | > 100 µM | 15.6 | > 100 | 19.1 | > 100 | 27.5 | > 100 | 28.8 | 99.2 µM | 3.73 | > 47.3 µM | 25.6 | > 100 | 4.35 µM | 39 µM
FC(F)(F)c1ccc(-c2cnc(-c3nn[nH]n3)nc2NC2CCCCCC2)cc1 | > 10 | > 10 µM | > 10 | > 10 µM | > 10 | > 10 µM | > 10 | > 10 | > 10 | > 10 | > 10 | > 10 | > 10 | > 10 µM | > 10 | > 10 µM | > 10 | > 10 | > 10 µM | > 10 µM
CCc1ccc2cc3c(ccc4ccccc43)c3c2c1CC3 | > 100 | > 100 µM | > 100 | > 100 µM | > 100 | > 100 µM | > 100 | > 100 | > 100 | > 100 | 0.6 | > 100 | > 100 | > 100 µM | > 100 | > 100 µM | > 100 | > 100 | > 100 µM | > 100 µM
CNC(=S)N/N=C/CSC/C=N/NC(=S)NC | > 100 | > 100 µM | > 100 | > 100 µM | > 100 | > 100 µM | > 100 | > 100 | > 100 | > 100 | 1.85 | > 100 | > 100 | > 100 µM | > 100 | > 100 µM | > 100 | > 100 | 0.799 µM | > 100 µM
